One assay addresses neurokinin receptor (Homo sapiens, UniProt P25103). Conditions: non-peptide antagonist which selectively binds to the receptor; cited from earlier work.
Assay [1] has as its target T1, neurokinin receptor (U-373MG glioma cell line) (Homo sapiens, UniProt P25103).
T1 construct: Cell line (U-373MG glioma cell line) over-expressing neurokinin receptor; host or cells: U-373MG glioma cell line
The assay is described as follows: Neurokinin receptor inhibition: binding of fluorescent substance P to U-373MG cells. As to conditions: 50 nM sample, 50nM SP. On the procedure: Cell line (U-373MG glioma cell line) over-expressing neurokinin receptor was purchased from Korean Cell Line Bank. The cell line was incubated with 5% CO2 in a medium (90% of RPMI 1640, 10% of fetal bovine serum, 100 IU/ml of penicillin, 100 μg/ml of streptomycin, 2 mM of L-glutamine, and 1.0 mM of sodium pyruvate), and was sub-cultured every 6-8 days with 0.25% trypsin solution.
Cells were diluted to have various cell numbers, and were seeded onto a 24-well plate. After 48 hours, substance P (SP) connected with a probe was added in various concentrations. After some time for reaction, the concentration of fluorescence probe-containing SP (Oregon Green488 conjugate, Molecular Probes, Eugene, Oreg.) bound to the receptor was measured with a fluorophotometer according to the number of cells and the concentrations, through which the ideal condition was established [V J. Bennett et al., BMC Chem. Biol., 1:1, 2001]. Non-peptide antagonist, L-733060 (estimated affinity=0.8nM), which selectively binds to the receptor was used as a control [R. Bang et al., J. Pharmacol. Exp. Ther., 305, p 31-39, 2003].
50% Ethanol aqueous solution extract of Atractylodes japonica was solved in DMSO (the final concentration is within 0.1%) and diluted with distilled water. […] Then, cells were dissolved in 5% Triton X-100, and their fluorescence (Ex 485/Em 528) was measured with black, opaque 96-well plate. […]

Sequence of neurokinin receptor (P25103 whole entry): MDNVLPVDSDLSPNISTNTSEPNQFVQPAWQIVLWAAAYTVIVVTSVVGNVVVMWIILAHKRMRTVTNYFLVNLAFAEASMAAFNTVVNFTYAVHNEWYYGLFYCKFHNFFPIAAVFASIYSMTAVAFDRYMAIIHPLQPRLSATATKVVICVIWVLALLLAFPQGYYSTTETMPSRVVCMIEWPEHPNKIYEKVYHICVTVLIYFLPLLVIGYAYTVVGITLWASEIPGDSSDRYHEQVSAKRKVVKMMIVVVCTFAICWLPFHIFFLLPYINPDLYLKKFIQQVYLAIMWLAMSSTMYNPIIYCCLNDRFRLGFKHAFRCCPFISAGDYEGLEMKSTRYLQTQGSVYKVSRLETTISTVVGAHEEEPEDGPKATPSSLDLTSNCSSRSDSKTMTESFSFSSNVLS
T1 sequence (P25103 whole entry): as above

Turning to `FC(F)(F)c1cc(CO[C@H]2CCCN[C@H]2c2ccccc2)cc(C(F)(F)F)c1` [Extract L-733060, L-733060], the estimated affinity on neurokinin receptor is 0.8 nM. Also, in assay [1], the “Relative Inhibitory Activity (%)” value is reported as 72 ± 8 %.

The values above are taken from patent US20120128807A1, “COMPOSITION FOR PREVENTING OR TREATING IRRITABLE BOWEL SYNDROME” (SK CHEMICALS CO., LTD., priority 2009, published 2012).
